Laboratory results published in US20230111310A1, “CARBOXYLIC ACID DERIVATIVE-SUBSTITUTED IMINO ARYL COMPOUND, PREPARATION METHOD THEREFOR, HERBICIDAL COMPOSITION AND USE THEREOF” (Qingdao Kingagroot Chemical Compound Co., Ltd., priority 2020, published 2023).

Legend:
Assay in all cases: Weeding effect in post-emergence stage
Assay type in all cases: in vivo
Abutilon theophrasti = settings: for Weeding effect in post-emergence stage, Abutilon theophrasti (level): fresh weight control rate level; for Weeding effect in post-emergence stage, Abutilon theophrasti: level of fresh weight growth control rate
Outline: (§1)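 Doses of 500, 250, 125, 60, 30, 15 and 7.5 g/ha, with methyl oleate synergist (1.5 liter/ha) and Tween 80 from acetone solution, applied by spray tower post-emergence (2–3 leaf stage). Weed control scored after 3 further greenhouse weeks, averaged over triplicates.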

Alopecurus japonicus = settings: for Weeding effect in post-emergence stage, Alopecurus japonicus (level): fresh weight control rate level; for Weeding effect in post-emergence stage, Alopecurus japonicus: level of fresh weight growth control rate
Outline: as §1

Digitaria sanguinalis = settings: for Weeding effect in post-emergence stage, Digitaria sanguinalis (level): fresh weight control rate level; for Weeding effect in post-emergence stage, Digitaria sanguinalis: level of fresh weight growth control rate
Outline: as §1

Eleusine indica = settings: for Weeding effect in post-emergence stage, Eleusine indica (level): fresh weight control rate level; for Weeding effect in post-emergence stage, Eleusine indica: level of fresh weight growth control rate
Outline: as §1

Setaria viridis = settings: for Weeding effect in post-emergence stage, Setaria viridis (level): fresh weight control rate level; for Weeding effect in post-emergence stage, Setaria viridis: level of fresh weight growth control rate
Outline: as §1

Echinochloa crusgalli = settings: for Weeding effect in post-emergence stage, Echinochloa crusgalli (level): fresh weight control rate level; for Weeding effect in post-emergence stage, Echinochloa crusgalli: level of fresh weight growth control rate
Outline: as §1

## COC(=O)C(CC1CC1)O/N=C/c1cc(-n2c(=O)cc(C(F)(F)F)n(C)c2=O)c(F)cc1Cl (racemic) [Compound 462]
Abutilon theophrasti; Dose 15 g/ha
  Weeding effect in post-emergence stage, Abutilon theophrasti (level): 5 (Level 5: growth control rate is above 85%)
Alopecurus japonicus; Dose 15 g/ha
  Weeding effect in post-emergence stage, Alopecurus japonicus (level): 5 (Level 5: growth control rate is above 85%)
Digitaria sanguinalis; Dose 15 g/ha
  Weeding effect in post-emergence stage, Digitaria sanguinalis (level): 5 (Level 5: growth control rate is above 85%)
Eleusine indica; Dose 15 g/ha
  Weeding effect in post-emergence stage, Eleusine indica (level): 5 (Level 5: growth control rate is above 85%)
Setaria viridis; Dose 15 g/ha
  Weeding effect in post-emergence stage, Setaria viridis (level): 5 (Level 5: growth control rate is above 85%)
Echinochloa crusgalli; Dose 15 g/ha
  Weeding effect in post-emergence stage, Echinochloa crusgalli (level): 5 (Level 5: growth control rate is above 85%)

## COC(=O)C(CF)O/N=C/c1cc(-n2c(=O)cc(C(F)(F)F)n(C)c2=O)c(F)cc1Cl (racemic) [Compound 463]
Abutilon theophrasti; Dose 15 g/ha
  Weeding effect in post-emergence stage, Abutilon theophrasti (level): 5 (Level 5: growth control rate is above 85%)
Alopecurus japonicus; Dose 15 g/ha
  Weeding effect in post-emergence stage, Alopecurus japonicus (level): 5 (Level 5: growth control rate is above 85%)
Digitaria sanguinalis; Dose 15 g/ha
  Weeding effect in post-emergence stage, Digitaria sanguinalis (level): 5 (Level 5: growth control rate is above 85%)
Eleusine indica; Dose 15 g/ha
  Weeding effect in post-emergence stage, Eleusine indica (level): 5 (Level 5: growth control rate is above 85%)
Setaria viridis; Dose 15 g/ha
  Weeding effect in post-emergence stage, Setaria viridis (level): 5 (Level 5: growth control rate is above 85%)
Echinochloa crusgalli; Dose 15 g/ha
  Weeding effect in post-emergence stage, Echinochloa crusgalli (level): 5 (Level 5: growth control rate is above 85%)

## COC(=O)C(Cc1ccccc1)O/N=C/c1cc(-n2c(=O)cc(C(F)(F)F)n(C)c2=O)c(F)cc1Cl (racemic) [Compound 469]
Abutilon theophrasti; Dose 15 g/ha
  Weeding effect in post-emergence stage, Abutilon theophrasti (level): 5 (Level 5: growth control rate is above 85%)
Alopecurus japonicus; Dose 15 g/ha
  Weeding effect in post-emergence stage, Alopecurus japonicus (level): 5 (Level 5: growth control rate is above 85%)
Digitaria sanguinalis; Dose 15 g/ha
  Weeding effect in post-emergence stage, Digitaria sanguinalis (level): 5 (Level 5: growth control rate is above 85%)
Eleusine indica; Dose 15 g/ha
  Weeding effect in post-emergence stage, Eleusine indica (level): 5 (Level 5: growth control rate is above 85%)
Setaria viridis; Dose 15 g/ha
  Weeding effect in post-emergence stage, Setaria viridis (level): 5 (Level 5: growth control rate is above 85%)
Echinochloa crusgalli; Dose 15 g/ha
  Weeding effect in post-emergence stage, Echinochloa crusgalli (level): 5 (Level 5: growth control rate is above 85%)

## COC(=O)C(C)O/N=C/c1cc(-n2c(=O)c(C)c(C(F)(F)F)n(C)c2=O)c(F)cc1Cl (racemic) [Compound 473]
Abutilon theophrasti; Dose 30 g/ha
  Weeding effect in post-emergence stage, Abutilon theophrasti (level): 5 (Level 5: growth control rate is above 85%)
Alopecurus japonicus; Dose 30 g/ha
  Weeding effect in post-emergence stage, Alopecurus japonicus (level): 5 (Level 5: growth control rate is above 85%)
Digitaria sanguinalis; Dose 30 g/ha
  Weeding effect in post-emergence stage, Digitaria sanguinalis (level): 5 (Level 5: growth control rate is above 85%)
Eleusine indica; Dose 30 g/ha
  Weeding effect in post-emergence stage, Eleusine indica (level): 5 (Level 5: growth control rate is above 85%)
Setaria viridis; Dose 30 g/ha
  Weeding effect in post-emergence stage, Setaria viridis (level): 5 (Level 5: growth control rate is above 85%)
Echinochloa crusgalli; Dose 30 g/ha
  Weeding effect in post-emergence stage, Echinochloa crusgalli (level): 5 (Level 5: growth control rate is above 85%)

## CCOC(=O)[C@@H](C)O/N=C/c1cc(-n2c(=O)n(C)c(=S)n(C)c2=O)c(F)cc1Cl [3(R)]
Abutilon theophrasti; Dose 15 g/ha
  Weeding effect in post-emergence stage, Abutilon theophrasti: 5 (Level 5: growth control rate is above 85%)
Alopecurus japonicus; Dose 15 g/ha
  Weeding effect in post-emergence stage, Alopecurus japonicus: 4 (Level 4: growth control rate is greater than or equal to 60% and less than 85%)
Digitaria sanguinalis; Dose 15 g/ha
  Weeding effect in post-emergence stage, Digitaria sanguinalis: 5 (Level 5: growth control rate is above 85%)
Eleusine indica; Dose 15 g/ha
  Weeding effect in post-emergence stage, Eleusine indica: 5 (Level 5: growth control rate is above 85%)
Setaria viridis; Dose 15 g/ha
  Weeding effect in post-emergence stage, Setaria viridis: 5 (Level 5: growth control rate is above 85%)
Echinochloa crusgalli; Dose 15 g/ha
  Weeding effect in post-emergence stage, Echinochloa crusgalli: 5 (Level 5: growth control rate is above 85%)

## CCCOC(=O)[C@@H](C)O/N=C/c1cc(-n2c(=O)n(C)c(=S)n(C)c2=O)c(F)cc1Cl [4(R)]
Abutilon theophrasti; Dose 15 g/ha
  Weeding effect in post-emergence stage, Abutilon theophrasti: 5 (Level 5: growth control rate is above 85%)
Alopecurus japonicus; Dose 15 g/ha
  Weeding effect in post-emergence stage, Alopecurus japonicus: 5 (Level 5: growth control rate is above 85%)
Digitaria sanguinalis; Dose 15 g/ha
  Weeding effect in post-emergence stage, Digitaria sanguinalis: 5 (Level 5: growth control rate is above 85%)
Eleusine indica; Dose 15 g/ha
  Weeding effect in post-emergence stage, Eleusine indica: 5 (Level 5: growth control rate is above 85%)
Setaria viridis; Dose 15 g/ha
  Weeding effect in post-emergence stage, Setaria viridis: 5 (Level 5: growth control rate is above 85%)
Echinochloa crusgalli; Dose 15 g/ha
  Weeding effect in post-emergence stage, Echinochloa crusgalli: 5 (Level 5: growth control rate is above 85%)

## CC(C)OC(=O)[C@@H](C)O/N=C/c1cc(-n2c(=O)n(C)c(=S)n(C)c2=O)c(F)cc1Cl [5(R)]
Abutilon theophrasti; Dose 15 g/ha
  Weeding effect in post-emergence stage, Abutilon theophrasti: 5 (Level 5: growth control rate is above 85%)
Alopecurus japonicus; Dose 15 g/ha
  Weeding effect in post-emergence stage, Alopecurus japonicus: 5 (Level 5: growth control rate is above 85%)
Digitaria sanguinalis; Dose 15 g/ha
  Weeding effect in post-emergence stage, Digitaria sanguinalis: 5 (Level 5: growth control rate is above 85%)
Eleusine indica; Dose 15 g/ha
  Weeding effect in post-emergence stage, Eleusine indica: 5 (Level 5: growth control rate is above 85%)
Setaria viridis; Dose 15 g/ha
  Weeding effect in post-emergence stage, Setaria viridis: 5 (Level 5: growth control rate is above 85%)
Echinochloa crusgalli; Dose 15 g/ha
  Weeding effect in post-emergence stage, Echinochloa crusgalli: 5 (Level 5: growth control rate is above 85%)
